The supplement of paper PMC10307832

Tests used:
Assay in all cases: relative viability (nuclei count vs DMSO), 5 days (fraction); higher = more cells survive
[1] = compound: NC(=O)c1ccc(N(C(N)=O)c2c(F)cccc2F)nc1-c1ccc(F)cc1F [VX-702] + CC1(C)CCC(c2ccc(Cl)cc2)=C(CN2CCN(c3ccc(C(=O)NS(=O)(=O)c4ccc(N[C@H](CCN5CCOCC5)CSc5ccccc5)c(S(=O)(=O)C(F)(F)F)c4)cc3)CC2)C1 [Navitoclax] (partner 0.5 µM)
Method in brief: (§1)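 Each reported value is a median over duplicate plates. It expresses relative viability: treated-well nuclei count divided by vehicle-well nuclei count. Lung cancer cell lines in 1536-well plates were dosed by pin tool a day after seeding, alone with one drug or with a fixed anchor-drug dose plus five library-drug doses (not always all listed) in √10 steps, and nuclei were counted after 5 days.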

[2] = compound: NC(=O)c1ccc(N(C(N)=O)c2c(F)cccc2F)nc1-c1ccc(F)cc1F [VX-702] + C[C@@H](Oc1cc(-c2cnn(C3CCNCC3)c2)cnc1N)c1c(Cl)ccc(F)c1Cl [Crizotinib] (partner 1 µM)
Method in brief: as §1

[3] = compound: CC(C)(C)c1nc(-c2cccc(NS(=O)(=O)c3c(F)cccc3F)c2F)c(-c2ccnc(N)n2)s1 [Dabrafenib] + Cc1cc(Nc2cc(N3CCN(C)CC3)nc(Sc3ccc(NC(=O)C4CC4)cc3)n2)n[nH]1 [Tozasertib] (partner 0.1 µM)
Method in brief: as §1

[4] = compound: NC(=O)c1ccc(N(C(N)=O)c2c(F)cccc2F)nc1-c1ccc(F)cc1F [VX-702] + Nc1nc2[nH]cc(CCc3ccc(C(=O)N[C@@H](CCC(=O)O)C(=O)O)cc3)c2c(=O)[nH]1 [Pemetrexed] (partner 0.2 µM)
Method in brief: as §1

Cell Line	relative viability ([1]; first compound 0.02 µM)	relative viability ([1]; first compound 0.2 µM)	relative viability ([1]; first compound 0.6325 µM)	relative viability ([1]; first compound 2 µM)	relative viability ([2]; first compound 0.02 µM)	relative viability ([2]; first compound 0.2 µM)	relative viability ([2]; first compound 0.6325 µM)	relative viability ([2]; first compound 2 µM)	relative viability ([3]; first compound 0.003 µM)	relative viability ([3]; first compound 0.009487 µM)	relative viability ([3]; first compound 0.03 µM)	relative viability ([3]; first compound 0.09487 µM)	relative viability ([3]; first compound 0.3 µM)	relative viability ([4]; first compound 0.02 µM)	relative viability ([4]; first compound 0.2 µM)	relative viability ([4]; first compound 0.6325 µM)	relative viability ([4]; first compound 2 µM)
NCI-H2009	1.18	1.2	1.25	1.47	1.11	1.13	1.18	1.25	0.703	0.759	0.672	0.649	0.62	1.12	1.08	1.03	1.15
NCI-H2023	1.02	1.01	0.89	1.03	0.586	0.563	0.555	0.698	0.376	0.382	0.35	0.321	0.356	0.231	0.264	0.199	0.198
NCI-H2085	1.21	1.24	1.12	1.2	0.921	0.926	1.03	0.908	0.76	0.908	0.734	0.75	0.706	0.82	0.957	0.949	0.852
NCI-H2087	0.975	0.838	0.92	1.05	0.847	0.862	0.867	0.739		0.306	0.254	0.302	0.264	0.703	0.657	0.681	0.656
NCI-H2126	0.832	0.814	0.779	0.698	1.04	1.13	1.05	1.08	0.809	0.865	0.858	0.862	0.882	0.717	0.659	0.676	0.624
NCI-H2170	0.625	0.372	0.665	0.607	1.28	1.09	1.24	1.4	0.805	0.811	0.632	0.62	0.727	0.275	0.264	0.309	0.278
NCI-H2228	1.29	0.973	0.886	0.952	0.628	0.536	0.394	0.45		0.246	0.248	0.236	0.244	0.338	0.336	0.37	0.342
NCI-H2347	0.887	0.712	0.756	0.792	0.733	0.763	0.858	0.731		0.548	0.344	0.621	0.496	0.425	0.43	0.438	0.415
NCI-H2405	0.813	0.773	0.89	1.2	0.791	0.813	0.774	0.99		0.799		0.647	0.726	1.11	1.04	1.04	1.2
NCI-H3122	1.07	1.05	1.04	1.02	0.268	0.238	0.251	0.258	0.427	0.449	0.391	0.374	0.367	0.21	0.194	0.199	0.187
PC-3 [JPC-3]	0.756	0.846	0.844	0.853	0.974	0.966	1.03	1.04	0.934	0.957	0.941	0.827	0.929	1.23	1.08	1.23	1.07
PC-14	1.06	1.01	1.04	1.03	0.874	0.86	0.818	1.02		0.631	0.647	0.527	0.624	0.142	0.15	0.124	0.119
RERF-LC-KJ	1.18	1.1	0.83	0.869	0.876	0.849	0.825	0.875	0.484	0.593	0.581	0.456	0.591	0.504	0.6	0.484	0.454
SK-LU-1	0.7	0.757	0.66	1.32	0.96	0.751	0.934	0.963		0.365	0.255	0.311	0.332	1.01	0.965	0.936	1.04
SK-MES-1	1.24	1.12	1.22	1.44	0.989	0.94	0.986	1.09	0.863	0.874	0.861	0.811	0.565	0.936	0.89	0.891	0.979
SW 1573	0.938	0.809	0.831	0.909	0.8	0.721	0.773	0.784	0.284	0.233	0.191	0.19	0.241	0.759	0.914	0.775	0.741
UMC-11	0.274	0.293	0.303	0.359	0.578	0.596	0.512	0.692	0.189	0.202	0.19	0.197	0.231	0.908	0.711	0.755	0.922
